Key:
[1] = test system: HAECs; type: cell-based, human; conditions: up to 50 nM (100 nM for A4, A7, A9)
Method: For cell proliferation assay, HAECs were divided at a concentration of 4000 cells/well in a final volume of 100 μl onto a 96-well plate including a siRNA-transfection reagent mixture. After siRNA-transfected for 24 hours, the cells were serum-starved for 18 hours, and then placed in an EBM-2 basal medium supplemented with VEGF-A165 (25 ng/ml, Cat no. 293-VE, R&D systems) for additional 24 hours. The extent of cell proliferation was measured using a WST-1 cell proliferation assay kit (Roche Diagnostics, USA), and the number of cells was expressed as absorbance at 450 nm, which was averaged from 3 wells after subtracting the turbidity at 600 nm.
The cell migration assay was performed in a 24-well Transwell culture chamber (Costar; 8-μm pore size). The bottom of the filter was coated with gelatin B (1 mg/ml) and air-dried for 1 hour. HAECs (6×10^3) were added to upper chambers including siRNA-transfection complexes. After 24 hours, the siRNA-transfected HAECs were serum-starved overnight. A solution of VEGF-A (25 ng/ml) was prepared in a basal medium including 0.5% bovine serum albumin (BSA), and added to bottom chambers. The upper chamber wells were each filled with a basal medium including 0.5% BSA. The Transwell chamber was incubated for 8 hours under the condition of 37° C./5% carbon dioxide. After the incubation, the non-migrated cells at the top of the filter were removed, and the cells that migrated onto the bottom of filter were fixed and stained with 0.6% hematoxylin and 0.5% eosin. The stained cells were photographed and counted. The number of migrating cells was averaged from 3 wells.

[2] = test system: Src/ERK, β-catenin, E-cadherin; experiment: Serum-induced signaling and E-cadherin expression, SK28 cells; type: cell-based, human
Method: (§1) The cells were rinsed with an ice-cold phosphate buffered saline (PBS) solution and then lysed in an extraction buffer solution containing 20 mM Hepes (pH 7.0), 1% Triton X-100, 150 mM NaCl, 10% glycerol, 1 mM EDTA, 2 mM EGTA, 1 mM DTT, 5 mM Na3VO4, 5 mM NaF, 1 mM AEBSF, aprotinin (5 μg/ml), and leupeptin (5 μg/ml). After being centrifuged at 12,000×g, the purified cell extracts were used for immunoblotting. In order to adjust the loading, the membranes were stripped by shaking them for 30 minutes at 60° C. in 67 mM Tris (pH 6.7), 2% SDS, and 100 mM 2-mercaptoethanol solution, and reprobed with an appropriate pan antibody.
(§2) This proves the peroxidase activity of GT. Again, while GT treatment in the SK28 cells reduced Src/ERK activation and β-catenin phosphorylation, it increased the expression of E-cadherin (FIG. 53B). Furthermore, GT reduced the proliferation and the migration responding to serum stimulation in both SK5 and SK28 cells (FIGS. 53C and D).

[3] = test system: HASMCs; type: cell-based, human; conditions: up to 100 nM (200 nM for A4, A7, A9)
[4] = test system: PrxII knocked down HASMCs; experiment: Intracellular hydrogen peroxide (DCF fluorescence), PrxII knocked down HASMCs; type: cell-based, human; conditions: concentration-dependent
Method: First, the ability of GT to eliminate intracellular hydrogen peroxide in PrxII knocked down HASMCs and HAECs was tested. The cellular hydrogen peroxide production was monitored using an oxidant-sensitive fluorescence dye (2′,7′-dihydro-chlorofluorescein diacetate, H2DCF-DA).

[5] = test system: balloon injured carotid arteries; experiment: Vascular permeability test (Evans blue inflow); conditions: rat, in vivo
Method: Mice were injected intravenously with 100 μl of 5% Evans blue for 30 minutes and then perfused with PBS for 5 minutes. The common carotid arteries were removed from both uninjured collateral and injured ipsilateral ones. The result was dissected, opened longitudinally, and examined on a phase contrast microscope with a magnification of 20×. For quantification, the Evans blue inflowed into the blood vessel was extracted by being placed in formamide at 55° C. overnight and centrifuged for 10 minutes at 12,000 rpm. The supernatants were collected and the absorbance was measured at 620 nm. The background value of the Evans blue dye was measured at 740 nm and substracted from the values in carotid arteries. For VEGFR2 inhibition, SU5416 (20 mg/kg) was injected intraperitoneally for 3 times (Days −1, 1, and 3) before and after the balloon injury. Control injection was made of 200 μl PBS including a vehicle (5% DMSO).
The permeability of the repaired endothelium was examined by Evans blue inflow.

[6] = test system: VEGFR2 and ERK; experiment: VEGF-induced signaling, immunoblot, PrxII knocked down HAECs; type: cell-based, human; conditions: 2 hours pretreatment, VEGF 10 minutes
Method: as §1
In addition, the regulatory effects of GT on the PDGFRβ- and VEGFR2-mediated signaling pathway were examined. The GT treatment in HASMCs was quite different from PDGF-induced tyrosine phosphorylation that was enhanced by the PrxII knockdown (FIG. 12a). […] Conversely, the GT treatment in HAECs restored the VEGF-dependent activation of VEGFR2 and ERK that had been diminished by the PrxII knockdown (FIG. 12b). The effects of GT in vascular cell fuction were further validated.
Lastly, the effects of GT, a representative ETP compound, on vascular cells were compared with the effects of other compounds known as anti-oxidant compounds such as N-acetylcysteine or butylated hydroxyanisole, and the results are shown in FIG. 33. Immunoblotting was performed by pretreating HAECs in which PrxII was knocked down by injecting siRNA with each compound at the concentrations indicated in the graphs for two hours, and then treating with VEGF for 10 minutes. […] These comparative experiments led the inventors of the present invention to conclude that the distinguished […] function of the ETP compounds is clearly due to the PrxII-analogous activity, and additionally to the special chemical property of the dithioketopiperazine ring.

[7] = test system: SK-MEL-28 (SK28) melanoma cells; experiment: Intracellular hydrogen peroxide, SK28 melanoma cells; type: cell-based, human; conditions: PrxII-deficient SK28 cells, nontoxic level of GT
Method: The intracellular H2O2 level was measured using 5,6-chloromethyl-2′,7′-dichlorodihydrofluorescein diacetate (CM-DCFH-DA, Invitrogen), an oxidation-sensitive fluorescent dye. Human epidermal melanocyte, SK-MEL-5, SK-MEL-28, A375 and G361 cells (3×10^5) were grown in a 35 mm culure dish and infected with retroviruses for 24 hours. After that, the cells were serum-starved for 18 hours, and stimulated with 20% FBS for 10 minutes in a phenol red-free medium. After stimulated as described above, the cells were quickly rinsed with a Krebs-Ringer solution, and incubated with 5 μM CM-DCFH-DA for 5 minutes. 2′,7′-dichlorodihydrofluorescein (DCF) fluorescence was collected for 10 seconds using an inverted Axiovert 200 fluorescence microscope (Zeiss). The relative DCF fluorescence was calculated by averaging the fluorescence intensities of 60 to 80 cells after subtracting the background fluorescence from each image using an ImageQuant™ software (GE Healthcare). The desorbed sphenoid cells were excluded from quantification.
as §2

## CN1C(=O)[C@]23CC4=CC=C[C@H](O)[C@H]4N2C(=O)[C@@]1(CO)SS3 [gliotoxin]
[1]
  VEGF-induced proliferation and chemotactic transmigration of HAECs, impaired by PrxII knockdown: enhancement
[2]
  expression of E-cadherin: increased
[2]; serum stimulation
  Src/ERK activation and β-catenin phosphorylation: reduced
[3]
  proliferation and chemotactic transmigration of HASMCs in response to PDGF, enhanced by PrxII knockdown: gradually reduced
[4]
  level of intracellular hydrogen peroxide increased by PDGF and PrxII knockdown: completely canceled out
[5]
  Evans blue inflow compared to DMSO-treated injured carotid arteries: approximately two-third reduction
[6]
  VEGF-dependent activation of VEGFR2 and ERK: restored
[7]
  level of intracellular hydrogen peroxide: reduced

Reference: patent US10450327B2, “Epidithiodioxopiperazine compound or its derivatives, and the use thereof” (priority 2011, dated 2019)
